According to patent US20080045504A1, “Benzonitrile Derivatives to Treat Musculoskeletal Frailty” (PFIZER PRODUCTS INC., priority 2004, published 2008):

molecular target: T1, recombinant human androgen receptor (hAR) (Homo sapiens, UniProt P10275); assay: Human androgen receptor binding analysis (3H-DHT competitive binding)
T1 construct: made in house; host or cells: baculovirus/Sf9 insect cells (crude extract)
T1 sequence (P10275 1-920): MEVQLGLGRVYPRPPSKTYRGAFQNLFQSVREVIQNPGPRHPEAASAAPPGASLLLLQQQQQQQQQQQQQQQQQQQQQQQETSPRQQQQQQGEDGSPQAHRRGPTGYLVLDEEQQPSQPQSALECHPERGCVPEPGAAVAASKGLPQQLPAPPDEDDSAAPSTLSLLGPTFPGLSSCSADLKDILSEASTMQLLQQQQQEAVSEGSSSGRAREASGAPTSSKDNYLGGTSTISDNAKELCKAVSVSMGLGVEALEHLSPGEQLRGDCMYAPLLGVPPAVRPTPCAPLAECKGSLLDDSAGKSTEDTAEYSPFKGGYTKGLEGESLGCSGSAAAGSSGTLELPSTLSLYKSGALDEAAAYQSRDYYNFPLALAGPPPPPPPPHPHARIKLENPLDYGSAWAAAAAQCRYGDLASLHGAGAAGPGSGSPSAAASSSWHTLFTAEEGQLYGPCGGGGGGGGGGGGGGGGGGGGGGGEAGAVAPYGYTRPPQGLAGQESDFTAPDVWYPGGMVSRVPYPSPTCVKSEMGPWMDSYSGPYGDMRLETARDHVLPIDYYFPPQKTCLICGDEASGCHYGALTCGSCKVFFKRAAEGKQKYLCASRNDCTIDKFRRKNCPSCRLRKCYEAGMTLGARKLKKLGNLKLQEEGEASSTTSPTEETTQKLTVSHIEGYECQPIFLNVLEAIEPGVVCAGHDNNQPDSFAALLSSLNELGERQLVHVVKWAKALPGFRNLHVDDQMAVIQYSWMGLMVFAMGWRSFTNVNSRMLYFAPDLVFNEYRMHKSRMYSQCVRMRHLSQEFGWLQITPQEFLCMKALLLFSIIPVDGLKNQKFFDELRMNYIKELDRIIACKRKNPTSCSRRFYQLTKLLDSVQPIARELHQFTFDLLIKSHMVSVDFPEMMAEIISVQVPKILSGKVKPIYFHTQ
Procedure: The following is a brief description of the assay that determines the affinity of a compound for the recombinant human androgen receptor (hAR). Competitive binding analysis is performed on baculovirus/Sf9 generated hAR extracts in the presence or absence of differing concentrations of drug and a fixed concentration of ^3H-dihydrotestosterone (^3H-DHT) as tracer. This binding assay method is a modification of a protocol previously described (Chang, et. al. J. Steroid Biochem. 20(1):11-17 1984). Briefly, progressively decreasing concentrations of compounds are incubated in the presence of hAR extract (Chang et al. P.N.A.S. Vol. 89, pp. 5546-5950, 1992), hydroxylapatite and 1 nM ^3H-DHT for one hour at 4° C. Subsequently, the binding reactions are washed three times to completely remove excess unbound ^3H-DHT. hAR bound ^3H-DHT levels are determined in the presence of compounds (=competitive binding) and compared to levels bound when no competitor is present (=maximum binding). Compound binding affinity to the hAR is expressed as the concentration of compound at which one half of the maximum binding is inhibited (the IC50).

| SMILES | IC50 [nM] |
| --- | --- |
| CCCN(c1ccc(C#N)c(C#N)c1)C(C)CC (centres unmarked) [Example 18, 4-(sec-Butyl-propyl-amino)-phthalonitrile] | 2.49 |
| CCC(C)N(CC)c1ccc(C#N)c(C(F)(F)F)c1 (centres unmarked) [Example 21, 4-(sec-Butyl-ethyl-amino)-2-trifluoromethyl-benzonitrile] | 1.71 |
| CC[C@H](C)N(CC)c1ccc(C#N)c(C(F)(F)F)c1 [Example 27, 4-((S)-sec-Butyl-ethyl-amino)-2-trifluoromethyl-benzonitrile] | 7.32 |
| CCC(C)N(C)c1ccc(C#N)c(C(F)(F)F)c1 (centres unmarked) [Example 17, 4-(sec-Butyl-methyl-amino)-2-trifluoromethyl-benzonitrile] | 3.99 |
| CCC1CCCCN1c1ccc(C#N)c(C#N)c1 (centres unmarked) [Example 5, 4-(2-Ethyl-piperidin-1-yl)-phthalonitrile] | 5.35 |
| CC(C)[C@@H](C)N(C)c1ccc(C#N)c(Cl)c1 [Example 25, 2-Chloro-4-[(1-(R), 2-dimethyl-propyl)-methyl-amino]-benzonitrile] | 45.6 |
| CC[C@@H](C)N(CC)c1ccc(C#N)c(C(F)(F)F)c1 [Example 12, 4-((R)-sec-Butyl-ethyl-amino)-2-trifluoromethyl-benzonitrile] | 3.21 |
| CCCN(c1ccc(C#N)c(C#N)c1)[C@H](C)CC [Example 11, 4-((R)-sec-Butyl-propyl-amino)-phthalonitrile] | 8 |
| CCN(CC)c1ccc(C#N)c(Cl)c1 [Example 47, 2-Chloro-4-(diethyl-amino)-benzonitrile] | 2.98 |
| CC(C)N(C)c1ccc(C#N)c(C(F)(F)F)c1 [Example 40, 4-(Isopropyl-methyl-amino)-2-trifluoromethyl-benzonitrile] | 0.99 |
| CCCN(c1ccc(C#N)c(Cl)c1)[C@H](C)CC [Example 10, 4-((R)-sec-Butyl-propyl-amino)-2-chloro-benzonitrile] | 3.28 |
| CCCN(c1ccc(C#N)c(C(F)(F)F)c1)[C@H](C)CC [Example 32, 4-((R)-sec-Butyl-propyl-amino)-2-trifluoromethyl-benzonitrile] | 5.97 |
| CC(C)N(C)c1ccc(C#N)c(Cl)c1 [Example 23, 2-Chloro-4-(isopropyl-methyl-amino)-benzonitrile] | 4.21 |
| CCC1CC(CO)CCN1c1ccc(C#N)c(C(F)(F)F)c1 (centres unmarked) [Example 31, 4-(2-Ethyl-4-hydroxymethyl-piperidin-1-yl)-2-trifluoromethyl-benzonitrile] | 9.63 |
| N#Cc1ccc(N2CCCCCC2)cc1C#N [Example 52, 4-Azepan-1-yl-phthalonitrile] | 5.04 |
| C=CCN(C)c1ccc(C#N)c(C(F)(F)F)c1 [Example 33, 4-(Allyl-methyl-amino)-2-trifluoromethyl-benzonitrile] | 3.82 |
| CC[C@H]1CCCCN1c1ccc(C#N)c(C#N)c1 [Example 4, 4-(2-(S)-Ethyl-piperidin-1-yl)-phthalonitrile] | 7.75 |
| CCCN(CCC)c1ccc(C#N)c(C#N)c1 [Example 19, 4-Dipropylamino-phthalonitrile] | 6.44 |
| N#Cc1ccc(N2CCCCC2CO)cc1C(F)(F)F (centres unmarked) [Example 42, 4-(2-Hydroxymethyl-piperidin-1-yl)-2-trifluoromethyl-benzonitrile] | 15.3 |
| CCN(c1ccc(C#N)c(C#N)c1)C(C)C [Example 16, 4-(Ethyl-isopropyl-amino)-phthalonitrile] | 3.06 |
| CC[C@H]1CCCCN1c1cc(F)c(C#N)c(F)c1 [Example 2, 4-(2-(S)-Ethyl-piperidin-1-yl)-2,6-difluoro-benzonitrile] | 1.15 |
| CC1CCCN1c1ccc(C#N)c(C(F)(F)F)c1 (centres unmarked) [Example 28, 4-(2-Methyl-pyrrolidin-1-yl)-2-trifluoromethyl-benzonitrile] | 1.5 |
| COC[C@H]1CCCN1c1ccc(C#N)c(C#N)c1 [Example 51, 4-(2-(R)-Methoxymethyl-pyrrolidin-1-yl)-phthalonitrile] | 12.4 |
| CC[C@H](C)N(C)c1ccc(C#N)c(C(F)(F)F)c1 [Example 26] | 5.47 |

| SMILES | IC50 [nM] |
| --- | --- |
| CC[C@H]1CCCCN1c1ccc(C#N)c(Cl)c1 [Example 3, 2-Chloro-4-(2-(S)-ethyl-piperidin-1-yl)-benzonitrile] | 3.67 |
| CCCCN(CCCC)c1ccc(C#N)c(C(F)(F)F)c1 [Example 44, 4-(Dibutyl-amino)-2-trifluoromethyl-benzonitrile] | 12.8 |
| CCCC1CCCCN1c1ccc(C#N)c(C(F)(F)F)c1 (centres unmarked) [Example 30, 4-(2-Propyl-piperidin-1-yl)-2-trifluoromethyl-benzonitrile] | 2.33 |
| CCCCCN(CC)c1ccc(C#N)c(C(F)(F)F)c1 [Example 38, 4-(Ethyl-pentyl-amino)-2-trifluoromethyl-benzonitrile] | 11.6 |
| CCCN(CCC)c1ccc(C#N)c(C(F)(F)F)c1 [Example 15, 4-Dipropylamino-2-trifluoromethyl-benzonitrile] | 1.68 |
| N#Cc1ccc(N2CCCCC2CCO)cc1C(F)(F)F (centres unmarked) [Example 36, 4-(2-(2-Hydroxyethyl)-piperidin-1-yl)-2-trifluoromethyl-benzonitrile] | 27.7 |
| CC1CCCCN1c1ccc(C#N)c(C(F)(F)F)c1 (centres unmarked) [Example 34, 4-(2-Methyl-piperidin-1-yl)-2-trifluoromethyl-benzonitrile] | 24.8 |
| CCCN(CC)c1ccc(C#N)c(Cl)c1 [Example 22, 2-Chloro-4-(ethyl-propyl-amino)-benzonitrile] | 5.4 |
| CCCCN(CCC)c1ccc(C#N)c(C(F)(F)F)c1 [Example 39, 4-(Butyl-propyl-amino)-2-trifluoromethyl-benzonitrile] | 2 |
| N#Cc1ccc(N2CCC[C@@H]2CO)cc1C(F)(F)F [Example 45, 4-(2(R)-(Hydroxy-methyl)-pyrrolidin-1-yl)-2-trifluoromethyl-benzonitrile] | 22.7 |
| CCCCN(CC)c1ccc(C#N)c(C(F)(F)F)c1 [Example 43, 4-(Butyl-ethyl-amino)-2-trifluoromethyl-benzonitrile] | 7.58 |
| CC[C@@H](C)N(C)c1ccc(C#N)c(Cl)c1 [Example 9, 4-((R)-sec-Butyl-methyl-amino)-2-chloro-benzonitrile] | 3.63 |
| CC(C)N(C)c1ccc(C#N)c(C#N)c1 [Example 50, 4-(Isopropyl-methyl-amino)-phthalonitrile] | 8.23 |
| CCC1CCCCN1c1ccc(C#N)c(C(F)(F)F)c1 (centres unmarked) [Example 6, 4-(2-Ethyl-piperidin-1-yl)-2-trifluoromethyl-benzonitrile] | 1.83 |
| CC[C@@H](C)N(CC)c1ccc(C#N)c(C#N)c1 [Example 14] | 3.8 |
| CC[C@@H](C)N(CC)c1ccc(C#N)c(Cl)c1 [Example 8, 4-((R)-sec-Butyl-ethyl-amino)-2-chloro-benzonitrile] | 1.4 |
| CCCN(CCC)c1cc(F)c(C#N)c(F)c1 [Example 53, 2,6-Difluoro-4-(dipropyl-amino)-benzonitrile] | 4.06 |
| COC[C@H]1CCCN1c1ccc(C#N)c(C(F)(F)F)c1 [Example 37, 4-(2(R)-(Methoxy-methyl)-pyrrolidin-1-yl)-2-trifluoromethyl-benzonitrile] | 10.1 |
| CCOC[C@H]1CCCN1c1ccc(C#N)c(C(F)(F)F)c1 [Example 35, 4-(2(R)-(Ethoxy-methyl)-pyrrolidin-1-yl)-2-trifluoromethyl-benzonitrile] | 2.07 |
| CC[C@@H](C)N(C)c1ccc(C#N)c(C#N)c1 [Example 13, 4-((R)-sec-Butyl-methyl-amino)-phthalonitrile] | 2.9 |
| CCCN(c1ccc(C#N)c(Cl)c1)C(C)C [Example 46, 2-Chloro-4-(isopropyl-propyl-amino)-benzonitrile] | 9.79 |
| CCN(c1ccc(C#N)c(Cl)c1)C(C)C [Example 48, 2-Chloro-4-(ethyl-isopropyl-amino)-benzonitrile] | 19.7 |
| CCCN(CCC)c1ccc(C#N)c(Cl)c1 [Example 49, 2-Chloro-4-(dipropyl-amino)-benzonitrile] | 8.33 |
